Data published in patent US20230183742A1, “Viral Vector Production” (Oxford BioMedica (UK) Limited, priority 2020, published 2023).
Values joined by “and” are separate entries in the source; they are usually repeats but may differ in a detail not shown here. Equal entries are not always repeated. “Also recorded” adds a separate entry of the source. Where two headings read alike, the source gives them in different places.

Columns and labels:
Format in all cases: cell-based, human
HEK293T cells [1] = system: HEK293T cells
HEK293T cells [2] = system: HEK293T cells; remark: listed apart in the source
HEK293T cells [3] = settings: single agent, FIG. 2; for concentration giving optimum vector production: induction 24 h post transfection
HEK1.65s cells [4] = system: HEK1.65s cells
HEK1.65s cells [5] = assay: Example 3: cell viability measurements of induced HEK1.65s cells (Table 6); settings: for Cell Viability (%): HEK1.65s; for Δ (cell viability vs No Induction Control): vs no induction control 78.8
HEK1.65s cells [6] = settings: for inducing effect on LV titre among HDAC inhibitors: HEK1.65s, 24-well plate, FIG. 7, sodium valproate at 3 mM, valeric acid at 10 mM
HEK1.65s cells [7] = assay: Example 4: 40 mL shake flask vector production, titre by duplex QPCR integration assay; settings: VRC vs VRC+55 nM prostratin, FIG. 10B
[8] = system: HEK293T.1-65s suspension cells
HEK1.65s cells [9] = system: HEK1.65s cells; remark: listed apart in the source
HEK1.65s cells [10] = assay: Example 3 Experiment 2: sodium butyrate x prostratin DOE in suspension HEK1.65s, 24-well plate, GFP titration and JMP model; settings: for optimum predicted concentration of combined induction agents: prediction profiler, FIG. 9C
HEK1.65s cells [11] = settings: 11 μM prostratin + 8 mM sodium butyrate, 40 mL shake flask; FACS and integration QPCR, FIGS. 10A & B
[12] = system: suspension (serum-free) HEK293T cells; assay: Example 8: GFP reporter expression from constitutive promoters in suspension HEK293T with or without prostratin, flow cytometry; settings: 11 μM prostratin with 10 mM sodium butyrate, two pDNA input levels, FIG. 18
HEK293T cells [13] = assay: FIG. 13/14: standard or MSD-mutated lentiviral vector production in HEK293T with modified U1 snRNA, titration and RT-PCR of aberrant splice product; settings: modified U1 snRNA co-expressed during production of standard and MSD-mutated LVs
[14] = 256U1 snRNA expression combined with 11 μM prostratin at induction
[15] = single titre enhancing agent (256U1 expression or 11 μM prostratin), 10 mM sodium butyrate
[16] = 11 μM prostratin with 10 mM sodium butyrate

CC(=O)NCCCCCCNC(C)=O [HMBA]
effect on titre in combination with prostratin and sodium butyrate (HEK293T cells [1]; 8 mM HMBA, compared to conditions where HMBA was excluded): notable decrease | effect on titre in combination with alternate HDAC inhibitors (HEK293T cells [1]; with sodium valproate, valeric acid or SAHA, FIG. 6): negative effects on titre | titre relative to the no-induction control (HEK293T cells [2]): approximately 4 fold | effect on titre of combination with HDAC inhibitors (HEK293T cells [2]; compared with HDAC inhibitor alone): no or only marginal improvements in titres; also recorded: did not produce any positive effects on titre | optimum concentration for vector induction (HEK293T cells [2]; single agent, FIG. 4): 16 mM

CC(=O)N[C@@H](CS)C(=O)O [NAC, N-Acetyl Cysteine]
effect on vector titre (HEK293T cells [3]): no positive impact on titre

CCCCCCCCCCCCCC(=O)O[C@@H]1[C@@H](C)[C@@]2(O)[C@@H](C=C(CO)C[C@]3(O)C(=O)C(C)=C[C@@H]23)[C@@H]2C(C)(C)[C@]12OC(C)=O [PMA, Phorbol 12-myristate 13-acetate]
effect on vector titre (HEK293T cells [3]): highest vector induction | optimum concentration for vector induction (HEK293T cells [2]): 3.2e-05 mM | titre relative to the no-induction control (HEK293T cells [2]): approximately 4 fold

O=C(CCCCCCC(=O)Nc1ccccc1)NO [SAHA, suberanilohydroxamic acid]
concentration giving optimum vector production (HEK293T cells [3]): 0.0025 mM | optimum concentration for vector induction (HEK293T cells [2]; single agent, FIG. 4): 0.001 mM

CC(/C=C/C(=O)NO)=C\[C@@H](C)C(=O)c1ccc(N(C)C)cc1 [TSA]
effect on vector titre (HEK293T cells [3]): failed to improve vector titres

O=C(OC[C@H]1O[C@@H](OC(=O)c2cc(O)c(O)c(OC(=O)c3cc(O)c(O)c(O)c3)c2)[C@H](OC(=O)c2cc(O)c(O)c(OC(=O)c3cc(O)c(O)c(O)c3)c2)[C@@H](OC(=O)c2cc(O)c(O)c(OC(=O)c3cc(O)c(O)c(O)c3)c2)[C@@H]1OC(=O)c1cc(O)c(O)c(OC(=O)c2cc(O)c(O)c(O)c2)c1)c1cc(O)c(O)c(OC(=O)c2cc(O)c(O)c(O)c2)c1 [Tannic acid, tannic acid]
effect on vector titre (HEK293T cells [3]): no measurable vector production

CC(=O)O[C@@]12C[C@@H](C)[C@@]3(O)[C@@H](C=C(CO)C[C@]4(O)C(=O)C(C)=C[C@@H]34)[C@@H]1C2(C)C [prostratin, 12-Deoxyphorbol-13-acetate]
titre increase compared to standard production control, CAR #1 vector (HEK1.65s cells [4]; [14]): 125 fold | titre increase compared to standard production control, CAR #2-T2A-GFP vector (HEK1.65s cells [4]; [14]): 4.5 fold | titre increase compared to standard production control, CAR #2 vector (HEK1.65s cells [4]; [14]): 7.9 fold | titre increase compared to standard production control, CAR #1 vector (HEK1.65s cells [4]; [15]): 24 fold | titre increase compared to standard production control, CAR #2-T2A-GFP vector (HEK1.65s cells [4]; [15]): 2 fold | titre increase compared to standard production control, CAR #2 vector (HEK1.65s cells [4]; [15]): 2.6 fold | effect on vector titre (HEK293T cells [3]): highest vector induction | Cell Viability (%) (HEK1.65s cells [5]; 2 μM prostratin, condition 3, vector production period of 48 hours): 79.4% | Δ (cell viability vs No Induction Control) (HEK1.65s cells [5]; 2 μM prostratin, condition 3): +0.6 | Cell Viability (%) (HEK1.65s cells [5]; 16 μM prostratin, condition 9, vector production period of 48 hours): 82.2% | Δ (cell viability vs No Induction Control) (HEK1.65s cells [5]; 16 μM prostratin, condition 9): +3.4 | Cell Viability (%) (HEK1.65s cells [5]; 32 μM prostratin, condition 45, vector production period of 48 hours): 79.8% | Δ (cell viability vs No Induction Control) (HEK1.65s cells [5]; 32 μM prostratin, condition 45): +1 | effect on cell viability (HEK1.65s cells [5]; prostratin 2-32 μM, vector production period of 48 hours): did not present any further loss in cell viability; also recorded: little cytotoxic effect; also recorded: no decrease in cell viability | effect on titre of addition alongside HDACi (HEK1.65s cells [6]; prostratin 4-8 μM with HDACi, nearly all cases): increased titres | increase in vector titre (HEK293T cells [1]; 10 μM prostratin in combination with 10 mM sodium butyrate): 92% | effect on induction of increasing prostratin from 1 to 10 μM (HEK293T cells [1]; throughout all the tested HDAC inhibitors, FIG. 6): positive enhancement of induction | effect of residual prostratin on titres from the integration assay (HEK1.65s cells [7]): identical titres | titres of MSD-mutated LV with Prostratin and 256U1 applied together ([8]; 11 μM Prostratin + 256U1 co-transfection, versus standard LV without inducers): higher that standard LV production titres; also recorded: increased higher than standard SIN-LV vectors | increase in titres of MSD-mutated LV vectors ([8]; 11 μM Prostratin added at the sodium butyrate step, HIV-MSD2KOm5-EFS-GFP or -EF1a-GFP, FIG. 15): 5-10 fold | effect on titres of MSD-mutated and standard SIN-LV [8, 16]: boosted titres | increase in EIAV-CMV-GFP titre compared to the control titre (HEK1.65s cells [9]; [16]): 2 fold | EIAV-CMV-GFP vector titre at harvest (HEK1.65s cells [9]; 11 μM prostratin with 10 mM sodium butyrate at induction): 9.1E+05 TU/mL | increase of LV titre above optimum sodium butyrate (8 mM) alone (HEK1.65s cells [10]; 11 μM prostratin with 8 mM sodium butyrate, DOE model optimum): 1.93 fold and ~2 fold | increase of GFP-HIV LV titres in combination with HDAC inhibitors (HEK1.65s cells [10]; Example 3 as summarised in Example 4, 24-well plate scale): ≥ 2 fold | effect on titre in combination with sodium butyrate (HEK1.65s cells [10]; FIG. 8): marked positive effect on titre | lowest concentrations causing an increase in titre (HEK1.65s cells [10]; in combination with sodium butyrate): 2 to 4 µM | optimum predicted concentration of combined induction agents (HEK1.65s cells [10]): 11 µM | increase in vector titre compared to the no induction control (HEK1.65s cells [10]; prostratin alone at 8-16 μM): ~13 fold and > 10 fold | inducing effect relative to optimum sodium butyrate (HEK1.65s cells [10]; prostratin alone at 8-16 μM): approximately half the inducing effect of optimum sodium butyrate concentrations | titre relative to the no-induction control (HEK293T cells [2]): approximately 4 fold | increase of MFI from GFP FACS of transduced cells (HEK293T cells [2]; 16 μM prostratin at induction, residual 0.4 μM after 40-fold vector dilution): 26% | MFI from GFP FACS of transduced cells (HEK293T cells [2]; 0.5 to 8 μM prostratin at induction): not observed to change | optimum concentration for vector induction (HEK293T cells [2]; single agent, FIG. 4): 0.016 mM | vector titre relative to induction with sodium butyrate alone (HEK1.65s cells [11]): 2.4- to 2.9 fold | induction of GFP transgene expression from constitutive promoters [12]: induction of expression from the promoters; also recorded: clear induction

CCCC(=O)[O-].[Na+] [sodium butyrate]
concentration giving optimum vector production (HEK293T cells [3]): 5 mM | Cell Viability (%) (HEK1.65s cells [5]; 10 mM sodium butyrate, condition 35, vector production period of 48 hours): 74.8% | Δ (cell viability vs No Induction Control) (HEK1.65s cells [5]; 10 mM sodium butyrate, condition 35): −4 | loss in cell viability (HEK1.65s cells [5]; sodium butyrate treated cells, vector production period of 48 hours): 4% | inducing effect on LV titre among HDAC inhibitors (HEK1.65s cells [6]): highest LV titres | optimum predicted concentration of combined induction agents (HEK1.65s cells [10]): 8000 µM

CCCC(CCC)C(=O)[O-].[Na+] [sodium valproate]
concentration giving optimum vector production (HEK293T cells [3]): 10 mM | inducing effect on LV titre among HDAC inhibitors (HEK1.65s cells [6]): some inducing effect | optimum concentration for vector induction (HEK293T cells [2]; single agent, FIG. 4): 10 mM

CCCCC(=O)O [valeric acid]
concentration giving optimum vector production (HEK293T cells [3]): 20 mM | inducing effect on LV titre among HDAC inhibitors (HEK1.65s cells [6]): some inducing effect | optimum concentration for vector induction (HEK293T cells [2]; single agent, FIG. 4): 10 mM

B1: 256U1: modified U1 snRNA targeting nt256-270 (SL1 loop) of the HIV-1 packaging signal; expression construct SEQ ID NO: 22 (nucleic acid)
DNA: TAAGGACCAGCTTCTTTGGGAGAGAACAGACGCAGGGGCGGGAGGGAAAAAGGGAGAGGCAGACGTCACTTCCCCTTGGCGGCTCTGGCAGCAGATTGGTCGGTTGAGTGGCAGAAAGGCAGACGGGGACTGGGCAAGGCACTGTCGGTGACATCACGGACAGGGCGACTTCTATGTAGATGAGGCAGCGCAGAGGCTGCTGCTTCGCCACTTGCTGCTTCACCACGAAGGAGTTCCCGTGCCCTGGGAGCGGGTTCAGGACCGCTGATCGGAAGTGAGAATCCCAGCTGTGTGTCAGGGCTGGAAAGGGCTCGGGAGTGCGCGGGGCAAGTGACCGTGTGTGTAAAGAGTGAGGCGTATGAGGCTGTGTCGGGGCAGAGGCCCAAGATCTCATTTGCCGTGCGCGCTTGCAGGGGAGATACCATGATCACGAAGGTGGTTTTCCCAGGGCGAGGCTTATCCATTGCACTCCGGATGTGCTGACCCCTGCGATTTCCCCAAATGTGGGAAACTCGACTGCATAATTTGTGGTAGTGGGGGACTGCGTTCGCGCTTTCCCCTGGTTTCAAAAGTAGACTGTACGCTAAGGGTCATATCTTTTTTTGTTTTGGTTTGTGTCTTGGTTGGCGTCTTAAATGTTAA
modifications: DNA-based expression constructs for the modified U1 snRNAs
titre increase compared to standard production control, CAR #1 vector (HEK1.65s cells [4]; [15]): 46 fold | titre increase compared to standard production control, CAR #2-T2A-GFP vector (HEK1.65s cells [4]; [15]): 2.7 fold | titre increase compared to standard production control, CAR #2 vector (HEK1.65s cells [4]; [15]): 2.5 fold | effect on lentiviral vector titres (HEK293T cells [13]): capable of increasing lentiviral vector titres
